The values that follow come from patent publication US20050228041A1, “Protective and therapeutic uses for tocotrienols” (priority 2003, published 2005).

In test [1] the test system is rat primary cortical neurons. Description: Imaging of glutamate-induced degeneration of rat primary cortical neurons (immunofluorescence, live cell imaging). In kind it is cell-based. Particulars: glutamate 10 mM; α-tocotrienol 250 nM or BL15 2.5 μM 5 min before.
Procedure: Phase contrast images were collected once every 15 mins for 18 h from 8 h after glutamate treatment.
For immunofluorescence microscopy, primary cultures of rat cortical neurons were plated on 35 mm plates pre-coated with poly-L-lysine. After 24 h, cell were treated with α-tocotrienol or BL15 for 5 minutes and then challenged with glutamate or exposed to glutamate. After 24 h of glutamate exposure, cells were washed thrice in PBS, fixed for 10 minutes at room temperature in 4% paraformaldehyde, and permeabilized with PBS-T (PBS containing 0.2% Triton X-100) for 20 minutes at room temperature. Samples were then rinsed 3× with PBS-T and blocking (2% BSA in PBS-T) was done for 1 h at room temperature. After blocking, samples were incubated overnight at 4° C. with the primary antibody (anti-neurofilament 200 (1:100, Sigma St. Louis, Mo.) or neuronal class III α-tubulin (1:500, Covance Berkeley, Calif.)}. After washing with PBS (3×, 5 min each), the samples were incubated with Alexa Fluor 488 conjugated goat anti-mouse or anti-rabbit (Molecular Probes Eugene, Oreg.) secondary antibody for 45 minutes at room temperature. This was followed by three PBS washes, and mounting in aqueous medium. Fluorescent images were collected using a Zeiss Axiovert 200M microscope. Images were acquired using Axiovision 3.1.
For live cell imaging, primary cultures of rat cortical neurons were plated on 35 mm plates pre-coated with poly-L-lysine. […] Images were collected once every 15 minutes using a specialized phase contrast Zeiss optics suited for imaging cells growing in routine culture plates.
The subject of test [2] is primary rat immature cortical neurons. Description: Neurotoxin-induced loss of viability of primary immature cortical neurons (LDH leakage). In kind it is cell-based. Particulars: 24 h. As for the experimental part:
(§1) Referring to FIG. 1, primary rat immature cortical neurons (A-C) or HT4 (D) were either treated or not with α-tocotrienol (as indicated) for 5 min and challenged with either glutamate (10 mM; A); L-homocysteic acid (1 mM; B); or buthionine sulfoximine (0.15 mM; BSO) for 24 h. […] Cells were counted at 12, 24 and 36 h after glutamate challenge.
(§2) First, we tested for the involvement of 12-LOX in the execution of glutamate-induced death in our model. We started by using the 12-LOX specific inhibitor baicalein or BL15. Referring to FIG. 3, HT4 neurons (A) were either treated or not with a-tocotrienol (250 nM) or […] (2.5 μM, 12-lipoxygenase inhibitor) for 5 min and then challenged with glutamate (10 mM). Cell viability was determined using propidium iodide (PI) exclusion flow cytometry assay. PI−=live; PI+=dead. Rat primary immature cortical neurons (B-D) were either treated or not with α-tocotrienol (100 nM) or BL15 (2.5 μM) for 5 min and challenged either with glutamate (10 mM; B); L-homocysteic acid (1 mM; C) or buthionine sulfoximine (0.15 mM; BSO; D) for 24 h. Arachidonic acid, 50 μM for 24h. BL15, Baicalein 5,6,7-trihydroxy-flavone.
(§3) Cell culture. Mouse hippocampal HT4 cells, were grown in Dulbecco's Modified Eagle Medium supplemented with 10% fetal calf serum, penicillin (100 U/ml) and streptomycin (100 μg/ml) at 37° C. in a humidified atmosphere containing 95% air and 5% CO2. HT4 cells were provided by Dr. D. E. Koshland Jr. (University of California at Berkeley) (Sen et al., 2000). Primary cortical neurons. Cells were isolated from the cerebral cortex of rat feti (Sprague Dawley; day 17 of gestation) or mouse feti (C57BL/6 mice, day 14 of gestation) as described (Murphy et al., 1990). For 12-LOX knockout studies, neurons were isolated from the feti of B6.129S2-Alox15^tm1Fun (Jackson Laboratory, […].). After isolation from the brain, cells were counted and seeded in culture plates at a density of 2-3×10^6 cells per 35 mm plate (Murphy et al., 1990). Cells were grown in Minimal Essential Medium (MEM) supplemented with 10% heat-inactivated fetal bovine serum, 40 μM cystine and antibiotics (100 μg/ml streptomycin, 100 units/ml penicillin, 0.25 μg/ml amphotericin). Cultures were maintained at 37° C. in 5% CO2 and 95% air in a humidified incubator. All experiments were carried out 24 h after plating.
(§4) Treatment with neurotoxic agents. Immediately before experiments, culture media was replaced with fresh medium supplemented with serum and antibiotics. Glutamate (10 mM) was added to the media as aqueous solution (Han et al., 1997a; Sen et al., 2000; Tirosh et al., 2000). […] Other agents used to induce death in neuronal cells have been described in the pertinent figure legends.
(§5) Vitamin E treatment. Stock solutions (10^3X of working concentration) of α-tocotrienol was prepared in ethanol. […]
(§6) Determination of cell viability. Viability of HT4 cells was determined using propidium iodide exclusion assay using the flow cytometer as described by us previously (Sen et al., 2000; Tirosh et al., 2000). Because primary neuronal cultures tend to aggregate during flow cytometry, the viability of these cells was assessed by measuring lactate dehydrogenase (LDH) leakage (Han et al., 1997a) from cells to media 24 h following glutamate treatment using in vitro toxicology assay kit from Sigma Chemical Co. (St. Louis, Mo., USA). […]

Test [3] relates to HT4 neurons. Description: Glutamate-induced death of HT4 neurons (propidium iodide exclusion flow cytometry, cell counts). Format: cell-based, mouse. The protocol:
as §1, §2, §3, §4, §5, §6

The subject of test [4] is primary neurons. Description: Cellular glutathione (GSH) in glutamate-treated primary neurons (HPLC-coulometric). Format: cell-based, rat. As to conditions: glutamate 10 mM; α-tocotrienol 100 nM or BL15 2.5 μM. As for the experimental part: as §2, with “5,6,7-trihydroxy-flavone. […] B-E: †, lower compared to the corresponding control non-treated group; *, higher compared to the corresponding toxin-treated group. P<0.05.” for “5,6,7-trihydroxy-flavone.”
Glutathione assay. Glutathione (GSH) was detected using a HPLC-coulometric electrode array detector (Coularray Detector—model 5600 with 12 channels; ESA Inc., Chelmsford, Mass.). […] Glutathione was detected at channels set at following potentials: I) 600 mV, II) 700 mV; and II) 800 mV. Signals from channel set at 800 mV were used for quantification (Sen et al., 2002).

In test [5] the test system is primary cardiac fibroblatsts (CF) isolated from adult mouse ventricle. Description: Cardiac fibroblast death induced by arachidonic acid + buthionine sulfoximine (phase contrast imaging). Particulars: arachidonic acid 50 microM + BSO, 250 nM tocotrienol, 24 h, 5% O2. Format: cell-based. As for the experimental part:
Assays were performed using primary cardiac fibroblatsts (CF) isolated from adult (5-6 week old) mouse ventricle. Cells were cultured under 5% O2 conditions. Five days after isolation cells were treated with arachidonic acid (50 microM)+buthionine sulfoximine in the presence or absence of 250 nM tocotrienol for 24h. Phase contrast imaging was performed using a Zeiss live cell imaging microscope.
Referring to FIG. 8, isolated cardiac fibroblasts cells were treated five days after isolation with arachidonic acid (AA)(50 microM)±buthionine sulfoximine (BS)) in the presence or absence of 250 nM tocotrienol (T3) for 24 hours. Phase contrast imaging was performed using a Zeiss live cell imaging microscope.

Test [6] deals with T1, alphaTTP (Rattus norvegicus, UniProt P41034).
T1 sequence (P41034 1-278): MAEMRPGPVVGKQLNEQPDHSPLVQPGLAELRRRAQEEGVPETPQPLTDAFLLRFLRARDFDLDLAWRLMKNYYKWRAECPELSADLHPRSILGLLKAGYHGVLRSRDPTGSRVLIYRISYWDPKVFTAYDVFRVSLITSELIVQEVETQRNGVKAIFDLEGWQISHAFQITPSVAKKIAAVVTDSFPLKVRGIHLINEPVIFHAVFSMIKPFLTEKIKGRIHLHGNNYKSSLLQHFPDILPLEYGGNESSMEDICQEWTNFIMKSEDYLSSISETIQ
As to conditions: competition with alpha-[3H]tocopherol; FEBS Lett 1997; cited from earlier work.

Test [7] addresses T2, hydroxy-3 methylglutaryl coenzyme A reductase (Homo sapiens, UniProt P04035).
T2 sequence (P04035 1-888): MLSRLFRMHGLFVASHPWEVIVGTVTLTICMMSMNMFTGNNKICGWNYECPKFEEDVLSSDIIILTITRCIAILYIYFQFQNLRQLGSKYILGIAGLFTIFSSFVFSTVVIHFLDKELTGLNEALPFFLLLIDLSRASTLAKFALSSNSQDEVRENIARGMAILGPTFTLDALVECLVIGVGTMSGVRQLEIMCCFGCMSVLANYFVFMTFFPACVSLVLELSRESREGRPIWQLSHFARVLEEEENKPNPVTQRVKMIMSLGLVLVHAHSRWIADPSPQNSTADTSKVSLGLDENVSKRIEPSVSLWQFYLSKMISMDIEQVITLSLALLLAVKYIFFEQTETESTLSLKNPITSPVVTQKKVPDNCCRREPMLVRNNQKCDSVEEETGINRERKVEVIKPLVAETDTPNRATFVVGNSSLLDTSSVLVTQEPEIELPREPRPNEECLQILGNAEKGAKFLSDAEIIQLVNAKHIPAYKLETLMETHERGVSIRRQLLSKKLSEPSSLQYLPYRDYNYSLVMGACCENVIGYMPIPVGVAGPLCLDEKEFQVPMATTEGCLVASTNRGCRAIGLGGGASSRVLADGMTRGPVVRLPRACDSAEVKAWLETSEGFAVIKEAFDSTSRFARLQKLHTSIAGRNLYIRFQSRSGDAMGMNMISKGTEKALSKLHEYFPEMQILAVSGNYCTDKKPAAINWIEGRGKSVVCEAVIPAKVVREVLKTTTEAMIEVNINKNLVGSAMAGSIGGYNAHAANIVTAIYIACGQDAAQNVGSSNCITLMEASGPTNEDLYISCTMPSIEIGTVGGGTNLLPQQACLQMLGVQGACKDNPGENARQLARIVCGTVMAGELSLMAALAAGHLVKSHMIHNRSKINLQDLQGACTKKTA
As to conditions: micromolar amounts; Pearce et al.; cited from earlier work.

Test [8] has as its system TTP knock-out mice. Description: Fertility of tocopherol transport protein (TTP) knock-out mice. Particulars: mouse, in vivo. The text has this: The uptake and transport of dietary or pharmaceutically supplemented tocopherol from the gut to various parts of the body is directed by TTP. In order to understand and distinguish the important roles of tocopherols and tocotrienols in mammals, knock out mice have been produced in which expression of TTP has been ablated. Interruption of TTP results in loss of fertility in these mice which make it impossible to breed and thus maintain the line for further study.

“Also recorded” adds a separate entry of the source.

For the compound `O=c1cc(-c2ccccc2)oc2cc(O)c(O)c(O)c12` [BL15, 5,6,7-trihydroxy-flavone, reference compound], the “glutamate-induced degeneration of the neural network and neuronal growth” value in test [1] was “protection”. Further, the “protection of primary neurons against toxicity triggered by L-homocysteic acid or BSO” value in test [2] (L-homocysteic acid 1 mM or BSO 0.15 mM, BL15 2.5 μM 5 min before) is “protected”. Moreover, the “protection against glutamate-induced death of primary neurons” value in test [2] (glutamate 10 mM, α-tocotrienol 100 nM or BL15 2.5 μM 5 min before) is recorded as “protected neurons against glutamate challenge; also recorded: clearly protected”. For the same compound, in test [3] (glutamate 10 mM, BL15 2.5 μM 5 min before), the “protection against glutamate induced death of HT4 cells” value was “clearly protected”. In addition, in test [4], the “cellular glutathione (GSH) in protected glutamate-treated primary neurons” value was “loss of cellular glutathione; also recorded: lowered GSH levels”.

As to tocotrienol, the “cell death induced by AA+BSO” value in test [5] is given as “completely blocked cell death”. The “relative affinity of alpha TTP” value in test [6] was “relatively low affinity”. Besides, in test [3] (glutamate 10 mM, tocotrienol 100 nM (nM levels) 5 min before), the “protection against glutamate-induced toxicity / loss of cell viability of HT4” value was “prevented glutamate-induced toxicity”. The “proliferation / growth rate of glutamate-treated HT4 cells” value in test [3] (tocotrienol 100 nM (nM levels), cells counted 12, 24 and 36 h after glutamate) is recorded as “proliferate at a rate comparable to cells not treated with glutamate”. Also, the “activity of hydroxy-3 methylglutaryl coenzyme A reductase” value in test [7] is “suppress the activity”. The “fertility of TTP knock-out mice” value in test [8] is reported as “reversal of TTP-dependent infertility”.
